Test results as given in patent publication US20230414607A1, “METHODS OF TREATMENT” (BOW RIVER LLC, priority 2017, published 2023).
Read-outs that look alike come from different tables or passages of the source.

Tests used:
[1] = Pooled posaconazole steady-state concentration and elimination half-life, clinical studies BOW-001 and BOW-002; format: in vivo, human; conditions: for half-life: human, in vivo
Description: The two clinical studies used the same protocol to measure posaconazole's elimination half-life, allowing for the data for normal patients from each study to be combined (“All Normal”) and data for obese patients from each study to be combined (“All Obese”).

[2] = Example 2: posaconazole pharmacokinetics in normal-weight and obese subjects; format: in vivo, human; conditions: for Steady-state concentration, Mean ± SD: posaconazole 300 mg once daily; for half-life: human, plasma, oral
Description: On study Day 4, subjects received two doses of posaconazole (300 mg BID). On the mornings of Days 5-17, they received posaconazole 300 mg once daily. As posaconazole is to be taken with food, subjects were fed a continental breakfast in the clinical research unit after receiving posaconazole and prior to discharge from the unit. Venous blood samples were drawn into EDTA containing tubes prior to the posaconazole dose on Days 4, 7, 11, and prior to the lurasidone dose on Days 14, 20, 23, 26 and 30. An additional blood sample was taken 5 hours after posaconazole dosage on Day 17, for approximate determination of maximum posaconazole plasma concentrations, and on Day 33. Samples were centrifuged and the plasma was separated and frozen at −70° C. until the time of assay.
Analytic Methods. All bioassay analyses were performed by Keystone Bioanalytical, North Wales, PA. For analysis of posaconazole, the internal standard (posaconazole-D4) was added to the biological samples. Plasma samples were precipitated using formic acid in acetonitrile and isolated using a Phree phospholipid removal tube. An aliquot of the sample was injected onto a high-pressure liquid chromatograph with tandem mass spectrometry triple quadrupole mass spectrometer (SCIEX API-5500). The analytical column was a Unison CK-218, 3 μm particle size HPLC column (50×2 mm) from Imtakt USA (Portland, OR). The mobile phase consisted of an aqueous component (0.25% formic acid and 10 mM ammonium formate in water) and an organic component (0.1% formic acid in acetonitrile) and was delivered by gradient, with the organic component going from 35% to 100%. The m/z transitions monitored were 701.6>614.4 for posaconazole and 705.6>618.4 for the internal standard. The calibration curve ranged from 1-1000 ng/mL (8 concentrations in duplicate).
Pharmacokinetic and Statistical Methods. […] The apparent washout half-life of posaconazole was calculated by log-linear regression analysis starting with the plasma concentration on Day 20 and ending with the last non-zero value. Differences between normal-weight and obese cohorts were evaluated by Student's t-test for independent groups. The relation between measures of body habitus and posaconazole washout half-life for individual subjects was evaluated by linear regression analysis.

[3] = Example 3: posaconazole posttreatment washout; format: in vivo; conditions: human, plasma, oral, 300 mg
[4] = Noxafil label, cited from earlier work
[5] = target: CYP3A4 (Homo sapiens, UniProt P08684); conditions: human
Description: Blood plasma levels may be described in various ways, such as area under the plasma concentration curve (AUC) and peak plasma concentration (Cmax). Baseline levels and posaconazole interaction levels for CYP3A4 substrate drugs may be compared using the geometric mean ratio (GMR) of AUC and Cmax. […] GMR is the standard industry and regulatory method for assessing the ratio of change of a pharmacokinetic variable (such as AUC) relative to its own baseline value (e.g., in a patient that was not treated with posaconazole). Once the level of substrate drug (AUC or Cmax) during co-administration with posaconazole and a CYP3A4 substrate drug is known, a function can be derived using conventional pharmacological methods to estimate how the AUC or plasma level of the CYP3A4 substrate drug is expected to decay over time after stopping administration of posaconazole. Such a function can be used to provide a plot of the decay GMR of AUC (or Cmax) of the CYP3A4 substrate drug versus time due to its interaction with posaconazole, based on the stated half-life of posaconazole.
The expected DDI decay curve can also be calculated for Cmax GMR by substituting Cmax during co-administration for AUC during co-administration in equation 1. As used herein, “expected levels” and “predicted levels” and the like, refer to the AUC or Cmax GMR values calculated using equation 1.

[6] = Plasma posaconazole concentrations and washout half-life in normal-weight and obese subjects; format: in vivo, human; conditions: for Trough (predose) steady-state posaconazole concentration: Day 15, posaconazole 300 mg delayed-release tablet daily; for half-life: human, plasma, oral, from day 15, read-out: Postdosage washout half-life of posaconazole (converted)
Description: On study day 2, subjects received posaconazole (300 mg delayed-release tablet twice a day), and on the mornings of days 3-15, subjects received posaconazole (300 mg delayed-release tablet daily). Because posaconazole is to be taken with food,^6 subjects were fed a continental breakfast in the clinical research unit after receiving posaconazole and before discharge from the unit. […] One additional blood sample was taken 5 hours after the posaconazole dose on day 15 for approximate determination of maximum plasma posaconazole concentrations. Samples were centrifuged, and the plasma was separated and frozen at −70° C. until the time of assay of plasma posaconazole concentrations.
Analytic Methods. All bioassay analysis was performed by Keystone Bioanalytical (North Wales, PA). For analysis of posaconazole, the internal standard (posaconazole-d4) was added to the biological samples. Plasma samples were precipitated using formic acid in acetonitrile and isolated using a Phree phospholipid removal tube, and then an aliquot of the sample was injected onto a high-pressure liquid chromatography with tandem mass spectrometry triple quadrupole mass spectrometer (Sciex API-5500). The analytical column was a Unison CK-218, 3 μm particle size HPLC column (50×2 mm) from Imtakt USA (Portland, OR). The mobile phase consisted of an aqueous component (0.25% formic acid and 10 mmol/L ammonium formate in water) and an organic component (0.1% formic acid in acetonitrile) and was delivered by gradient, with the organic component going from 35% to 100%. The m/z transitions monitored were 701.6→614.4 for posaconazole and 705.6→618.4 for the internal standard. The calibration curve ranged from 1 to 1000 ng/mL (8 concentrations in duplicate). The interassay precision of this method (as percentage coefficient of variance) was 4.28% to 7.14%, and the interassay accuracy (as percentage relative error) was […] to 3.12%.
For each subject, the predose plasma posaconazole concentration on study day 15 was used as a steady-state concentration. The apparent washout half-life of posaconazole was calculated by log-linear regression analysis starting with the plasma concentration on day 15 and ending with the last nonzero value. Differences between normal-weight and obese cohorts were evaluated by Student t-test for independent groups.

CYP3A4, sequence (P08684 whole entry): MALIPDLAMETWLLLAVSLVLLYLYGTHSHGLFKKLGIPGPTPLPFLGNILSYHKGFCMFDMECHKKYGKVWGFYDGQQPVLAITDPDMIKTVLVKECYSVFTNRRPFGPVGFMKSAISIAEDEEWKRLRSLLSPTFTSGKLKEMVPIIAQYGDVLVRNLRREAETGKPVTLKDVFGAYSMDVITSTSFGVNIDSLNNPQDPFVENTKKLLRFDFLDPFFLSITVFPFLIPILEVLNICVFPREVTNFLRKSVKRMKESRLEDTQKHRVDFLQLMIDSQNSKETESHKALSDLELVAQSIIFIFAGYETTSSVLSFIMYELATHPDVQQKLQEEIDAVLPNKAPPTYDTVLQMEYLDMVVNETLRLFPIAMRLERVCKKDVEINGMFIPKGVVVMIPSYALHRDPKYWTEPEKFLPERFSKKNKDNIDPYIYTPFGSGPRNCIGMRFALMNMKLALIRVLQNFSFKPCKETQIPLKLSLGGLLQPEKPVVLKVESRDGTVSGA

With `CC[C@@H]([C@H](C)O)n1ncn(-c2ccc(N3CCN(c4ccc(OC[C@@H]5CO[C@@](Cn6cncn6)(c6ccc(F)cc6F)C5)cc4)CC3)cc2)c1=O` [posaconazole] the “Css, Mean” value ([1]; All Normal (pooled)) was 2864 ng/mL, the “Css, Mean” value ([1]; All Obese (pooled)) was 1860 ng/mL and the “Css, Mean” value ([1]; BOW-001 Normal) was 3071 ng/mL. The “Css, Mean” value ([1]; BOW-001 Obese) was 2258 ng/mL, the “Css, Mean” value ([1]; BOW-002 Normal) was 2514 ng/mL and the “Css, Mean” value ([1]; BOW-002 Obese) was 1462 ng/mL. The half-life ([1]; All Normal (pooled), normal weight patients, read-out: t1/2, Mean (elimination half-life) (converted)) was 33.6 h, the half-life ([1]; All Obese (pooled), obese patients, read-out: t1/2, Mean (elimination half-life) (converted)) was 58.3 h and the half-life ([1]; BOW-001 Normal, read-out: t1/2, Mean (converted)) was 35.7 h. The half-life ([1]; BOW-001 Obese, read-out: t1/2, Mean (converted)) was 64.5 h, the half-life ([1]; BOW-002 Normal, read-out: t1/2, Mean (converted)) was 30.9 h and the half-life ([1]; BOW-002 Obese, read-out: t1/2, Mean (converted)) was 52.5 h. For the same compound, the “Steady-state concentration, Mean ± SD” value ([2]; Normal) was 2377 ± 1188 ng/mL, the “Steady-state concentration, Mean ± SD” value ([2]; Obese) was 1462 ± 649 ng/mL and the half-life ([2]; Normal, read-out: Washout half-life, Mean ± SD (converted)) was 31 h. It also gave a half-life ([2]; Obese, read-out: Washout half-life, Mean ± SD (converted)) of 53 h, a half-life ([2]; controls (normal-weight), read-out: Mean washout half-life (converted)) of 30.7 h and a half-life ([2]; obese group, read-out: Mean washout half-life (converted)) of 52.6 h. The half-life ([2]; two obese subjects, read-out: very long half-life values (converted)) was 121 h, the half-life ([3]; normals) was 36 h and the half-life ([3]; obese subjects) was 64 h. For the same compound, the posaconazole half-life ([4]; after administration of posaconazole oral suspension) was 31 to 37 h, the posaconazole half-life ([4]; after dosing with posaconazole injection) was “about 24 hours” and the posaconazole half-life ([4]; patients with mild hepatic impairment) was 39 h. The posaconazole half-life ([4]; patients with moderate hepatic impairment) was 27 h, the posaconazole half-life ([4]; patients with normal hepatic function) was 27 h and the posaconazole half-life ([4]; patients with severe hepatic impairment) was 43 h. For the same compound, the “Kel=ln(2)/(31 hours/24 hours)” value [5] was “about 0.5366”, the “Trough (predose) steady-state posaconazole concentration” value ([6]; normal-weight subjects) was 3071 ± 1422 ng/mL and the “Trough (predose) steady-state posaconazole concentration” value ([6]; obese subjects) was 2258 ± 952 ng/mL. The half-life ([6]; normal-weight subjects) was 35.8 h, the half-life ([6]; obese subjects) was 64.3 h and the “Time posaconazole plasma concentrations persisted after stopping treatment” value ([6]; most subjects) was “at least 2 weeks”.
